Assay results reported in publication PMC3179844 (Chemmedchem, 2011).
Marks after values point to notes of the source that are not given here.

Tests used:
[1] = target: human 11β-HSD1 (Homo sapiens, UniProt P28845); assay: Cellular 11β-HSD1 inhibition assay; details: for inhibition at 1 µM: HEK293, read-out: Percent inhibition measured at 1 μM
[2] = ratio of IC50 values, human 11β-HSD1

human 11β-HSD1, sequence (P28845 whole entry): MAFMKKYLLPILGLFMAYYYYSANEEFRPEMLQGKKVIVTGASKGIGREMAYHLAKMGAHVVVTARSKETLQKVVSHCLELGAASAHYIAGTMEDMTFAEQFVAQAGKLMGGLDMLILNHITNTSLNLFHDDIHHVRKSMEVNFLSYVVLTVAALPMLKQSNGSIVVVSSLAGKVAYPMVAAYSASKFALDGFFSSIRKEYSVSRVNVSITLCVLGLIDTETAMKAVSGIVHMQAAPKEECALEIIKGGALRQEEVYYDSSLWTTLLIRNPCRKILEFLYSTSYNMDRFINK

| Molecule | melting point [°C] | also measured |
| --- | --- | --- |
| O=C(Cc1cccnc1)NCC(=O)C12CC3CC(CC(C3)C1)C2 [Compound 61, N-[2-(Adamantan-1-yl)-2-oxoethyl]-2-(pyridin-3-yl)acetamide] | 115 to 117 | – |
| O=C(CSc1ccncc1)C12CC3CC(CC(C3)C1)C2 [Compound 15, 1-(Adamantan-1-yl)-2-(pyridin-4-ylsulfanyl)ethan-1-one] | 114 to 115 | – |
| O=C(COc1cncc(Cl)c1)C12CC3CC(CC(C3)C1)C2 [Compound 9, 1-(Adamantan-1-yl)-2-[(5-chloropyridin-3-yl)oxy]ethan-1-one] | 127 to 128 | – |
| Cc1ccc(OCC(=O)C23CC4CC(CC(C4)C2)C3)cn1 [Compound 11, 1-(Adamantan-1-yl)-2-[(6-methylpyridin-3-yl)oxy]ethan-1-one] | 86 to 87 | fold improvement in activity compared with the 2-pyridyl analogue 6 [1, 2]: 38 fold |
| Cc1cccc(OCC(=O)C23CC4CC(CC(C4)C2)C3)n1 [Compound 6, 1-(Adamantan-1-yl)-2-[(6-methylpyridin-2-yl)oxy]ethan-1-one] | 85 to 87 | IC50 ([1]; IC50, human 11β-HSD1, HEK293/HSD11B1 cells): 3.1 µM |
| O=C(NCC(=O)C12CC3CC(CC(C3)C1)C2)c1ccncc1 [Compound 59, N-[2-(Adamantan-1-yl)-2-oxoethyl]pyridine-4-carboxamide] | 147 to 149 | – |
| O=C(CS(=O)(=O)Cc1ccc(C(F)(F)F)nc1)C12CC3CC(CC(C3)C1)C2 [Compound 52, 1-(Adamantan-1-yl)-2-({[6-(trifluoromethyl)pyridin-3-yl]methyl}sulfonyl)ethan-1-one] | 87 to 89 | inhibition at 1 µM [1]: 54% |
| O=C(CSCc1ccc(C(F)(F)F)nc1)C12CC3CC(CC(C3)C1)C2 [Compound 48, 1-(Adamantan-1-yl)-2-({[6-(trifluoromethyl)pyridin-3-yl]methyl}sulfanyl)ethan-1-one] | 80 to 82 | inhibition at 1 µM [1]: 20% |
| O=C(NCC(=O)C12CC3CC(CC(C3)C1)C2)c1ccccn1 [Compound 56, N-[2-(Adamantan-1-yl)-2-oxoethyl]pyridine-2-carboxamide] | 135 to 136 | – |
| O=C(COCc1ccc(C(F)(F)F)nc1)C12CC3CC(CC(C3)C1)C2 [Compound 34, 1-(Adamantan-1-yl)-2-{[6-(trifluoromethyl)pyridin-3-yl]methoxy}ethan-1-one] | 106 to 109 | inhibition at 1 µM [1]: 33% |
| O=C(CSCc1ccc(Cl)nc1)C12CC3CC(CC(C3)C1)C2 [Compound 49, 1-(Adamantan-1-yl)-2-{[(6-chloropyridin-3-yl)methyl]sulfanyl}ethan-1-one] | 88 to 90 | inhibition at 1 µM [1]: 31% |
| ON=C(COCc1ccccn1)C12CC3CC(CC(C3)C1)C2 [Compound 35, N-[1-(Adamantan-1-yl)-2-(pyridin-2-ylmethoxy)ethylidene]hydroxylamine] | – | inhibition at 1 μM (in words) ([1]; 1 μM, HEK293/HSD11B1 cells): none of the oxime compound shows any significant inhibition |
| ON=C(COCc1cccnc1)C12CC3CC(CC(C3)C1)C2 [Compound 36, N-[1-(Adamantan-1-yl)-2-(pyridin-3-ylmethoxy)ethylidene]hydroxylamine] | 115 to 117 | inhibition at 1 μM (in words) ([1]; 1 μM, HEK293/HSD11B1 cells): none of the oxime compound shows any significant inhibition |
| O=C(CS(=O)(=O)c1ccccn1)C12CC3CC(CC(C3)C1)C2 [Compound 19, 1-(Adamantan-1-yl)-2-(pyridine-2-sulfonyl)ethan-1-one] | 129 to 131 | – |
| O=C(CSCc1cccnc1)C12CC3CC(CC(C3)C1)C2 [Compound 38, 1-(Adamantan-1-yl)-2-[(pyridin-3-ylmethyl)sulfanyl]ethan-1-one] | 45 to 47 | – |
| O=C(COc1cccnc1Cl)C12CC3CC(CC(C3)C1)C2 [Compound 10, 1-(Adamantan-1-yl)-2-[(2-chloropyridin-3-yl)oxy]ethan-1-one] | 125 to 128 | – |

| Molecule | melting point [°C] | also measured |
| --- | --- | --- |
| Cc1cccc(C(=O)NCC(=O)C23CC4CC(CC(C4)C2)C3)n1 [Compound 57, N-[2-(Adamantan-1-yl)-2-oxoethyl]-6-methylpyridine-2-carboxamide] | 110 to 111 | – |
| O=C(CS(=O)(=O)c1ccncc1)C12CC3CC(CC(C3)C1)C2 [Compound 21, 1-(Adamantan-1-yl)-2-(pyridine-4-sulfonyl)ethan-1-one] | 143 to 144 | – |
| O=C(CSc1ccc(C(F)(F)F)cn1)C12CC3CC(CC(C3)C1)C2 [Compound 22, 1-(Adamantan-1-yl)-2-{[5-(trifluoromethyl)pyridin-2-yl]sulfanyl}ethan-1-one] | 141 to 142 | fold reduction in activity compared with the unsubstituted derivative 13 [1, 2]: 51 fold |
| O=C(COc1ccc(C(F)(F)F)cn1)C12CC3CC(CC(C3)C1)C2 [Compound 8, 1-(Adamantan-1-yl)-2-{[5-(trifluoromethyl)pyridin-2-yl]oxy}ethan-1-one] | 102 to 104 | – |
| O=C(NCC(=O)C12CC3CC(CC(C3)C1)C2)c1cccnc1 [Compound 58, N-[2-(Adamantan-1-yl)-2-oxoethyl]pyridine-3-carboxamide] | 114 to 115 | – |
| O=C(Cc1ccccn1)NCC(=O)C12CC3CC(CC(C3)C1)C2 [Compound 60, N-[2-(Adamantan-1-yl)-2-oxoethyl]-2-(pyridin-2-yl)acetamide] | 137 to 139 | – |
| 6-{[2-(Adamantan-1-yl)-2-oxoethyl]sulfanyl}-N-methylpyridine-3-carboxamide [Compound 25] | – | Percent inhibition measured at 1 μM ([1]; 1 μM, HEK293/HSD11B1 cells, mean of two measurements): 73 % ^[b] |
| O=C(CSCc1ccccn1)C12CC3CC(CC(C3)C1)C2 [Compound 37, 1-(Adamantan-1-yl)-2-[(pyridin-2-ylmethyl)sulfanyl]ethan-1-one] | 38 to 39 | – |
| O=C(COc1cccc(Cl)n1)C12CC3CC(CC(C3)C1)C2 [Compound 7, 1-(Adamantan-1-yl)-2-[(6-chloropyridin-2-yl)oxy]ethan-1-one] | 90 to 93 | – |
| O=C(O)c1ccc(SCC(=O)C23CC4CC(CC(C4)C2)C3)nc1 [Compound 23, 6-{[2-(Adamantan-1-yl)-2-oxoethyl]sulfanyl}pyridine-3-carboxylic acid] | 174 to 176 | – |
| CN(C)C(=O)c1ccc(SCC(=O)C23CC4CC(CC(C4)C2)C3)nc1 [Compound 27, 6-{[2-(Adamantan-1-yl)-2-oxoethyl]sulfanyl}-N,N-dimethylpyridine-3-carboxamide] | 63 to 65 | – |
| Cc1cccc(SCC(=O)C23CC4CC(CC(C4)C2)C3)n1 [Compound 14, 1-(Adamantan-1-yl)-2-[(6-methylpyridin-2-yl)sulfanyl]ethan-1-one] | 116 to 117 | inhibition at 1 µM [1]: 70% |
| NC(=O)c1ccc(SCC(=O)C23CC4CC(CC(C4)C2)C3)nc1 [Compound 24, 6-{[2-(Adamantan-1-yl)-2-oxoethyl]sulfanyl}pyridine-3-carboxamide] | 172 to 174 | – |
| CCNC(=O)c1ccc(SCC(=O)C23CC4CC(CC(C4)C2)C3)nc1 [Compound 26, 6-{[2-(Adamantan-1-yl)-2-oxoethyl]sulfanyl}-N-ethylpyridine-3-carboxamide] | 136 to 137 | – |
| Cc1cccc(S(=O)(=O)CC(=O)C23CC4CC(CC(C4)C2)C3)n1 [Compound 20, 1-(Adamantan-1-yl)-2-(6-methylpyridine-2-sulfonyl)ethan-1-one] | 151 to 152 | – |
